According to PMC9607282 (Pharmaceutics, 2022):
In brackets after ≈: the same amount, converted by molar mass. Like-named read-outs stand apart in the source and are kept apart here.

Assays:
[1] = six-month-old castrated boar ref 22; cited from earlier work
E. coli (ATCC 25922) = test: MIC quality control, agar dilution (CLSI M07-A9); assay type: cell-based; conditions: Escherichia coli, ATCC25922, quality control strain
Text: E. coli (ATCC 25922) and chloramphenicol were used as quality control, and the experimental results were only valid when the MIC was within the quality control range.

G. parasuis H78 [2] = test: PK-PD integration, sigmoid Emax model on ex vivo time killing in PELF; assay type: cell-based, Glaesserella parasuis; conditions: ADP/SMZ injection 5/25 mg/kg b.w. i.m.
Description: The association between antimicrobial efficiency and the ex vivo PK-PD parameters of AUC0−24h/MIC ratios was simulated by using the model of Emax inhibitory Sigmoid.

[3] = Adverse reactions after single intramuscular injection in pigs; conditions: single dose ADP 5, SMZ 25, ADP/SMZ 5/25 mg/kg b.w.
Description: (§1) Twenty-four pigs were randomly divided into 4 groups with 3 healthy groups and 1 infected group. […] The infected group was infected with G. parasuis H78 for 3 days.
A single dose of 5 mg/kg b.w., 25 mg/kg b.w., and 5/25 mg/kg b.w.

[4] = Pharmacokinetics in plasma and PELF of healthy pigs after intramuscular injection; assay type: in vivo; conditions: for T 1/2λ / AUC(0-t) / Cmax / Tmax / MRT last: n = 6; for AUC(0-t) / Cmax / Tmax / MRT last: pig, im; for AUC(0-t): AUC 24h; for MRT last: read-out: MRT 24h
Description: as §1
(§2) Add 3 mL of a mixture of dichloromethane and acetonitrile, and vortex centrifuge for 5 min at 10,000 rpm for 10 min. Remove the supernatant into a 10 mL centrifuge tube. Add 3 mL of dichloromethane and acetonitrile to the residue. Extract once again as described above. Combine the supernatant twice, and dissolve the residue with 1 mL of the initial mobile phase. Vortex to mix. Add 1 mL of n-hexane, remove the n-hexane layer (upper layer) to achieve the purpose of degreasing, and then use a 0.22-μm filter membrane to obtain a sample purification solution.
(§3) A C18 reverse phase column (250 mm × 4.6 mm, i.d., 5 µm, Agilent, Santa Clara, CA, USA) was used for HPLC, which was executed at a detection wavelength of 270 nm at 25 °C. The mobile phase comprised 0.1% trifluoroacetic acid (phase A) and 100% methanol (phase C) with a mobile phase flow rate of 1 mL/min.
(§4) The urea dilution method was used to determine the volume of PELF as described previously. The concentration of urea and PELF were determined by the urease-glutamate dehydrogenase enzymatic method with an automatic biochemical analyzer (SYNCHRON CX4 PRO; Beckman, Brea, CA, USA) at the National Reference Laboratory of Veterinary Drug Residues (Wuhan, China).

G. parasuis H78 [5] = test: Post-antimicrobial effect (PAE); assay type: cell-based, Glaesserella parasuis
Description: (§5) The MIC and MBC of G. parasuis H78 in broth and pulmonary epithelial lining fluid (PELF) were determined by the broth dilution method according to the CLSI M07-A9 standard with some modifications. The MPC of G. parasuis H78 in broth was determined by the agar dilution method recommended by CLSI M07-A9. The post-antimicrobial effect (PAE) was determined by the method of bacterial and drug removal after incubation.

G. parasuis H78 [6] = test: Mutant prevention concentration (MPC), agar dilution; assay type: cell-based, Glaesserella parasuis
Description: as §5

[7] = Pharmacokinetics in plasma and PELF of pigs infected with G. parasuis H78 after intramuscular injection; assay type: in vivo; conditions: for T 1/2λ: infected group, ADP/SMZ injection 5/25 mg/kg b.w. i.m., n = 6; for Tmax: pig, im
Description: as §1, §2, §3, §4

[8] = PELF, PELF, healthy group, ADP/SMZ injection 5/25 mg/kg b.w. i.m.
[9] = PELF, PELF, healthy pigs, single drug i.m.: ADP 5 mg/kg b.w., SMZ 25 mg/kg b.w.
[10] = plasma, plasma, healthy group, ADP/SMZ injection 5/25 mg/kg b.w. i.m.
[11] = plasma, plasma, healthy pigs, single drug i.m.: ADP 5 mg/kg b.w., SMZ 25 mg/kg b.w.

Compound: COc1cc(Cc2cnc(N)nc2N)cc(OC)c1OC [TMP, trimethoprim, reference compound]
- apparent distribution volume [1]: 1.4 L/kg
- elimination half-life [1]: 2.25 h

Compound: O=C(N[C@H](CO)[C@H](O)c1ccc([N+](=O)[O-])cc1)C(Cl)Cl [chloramphenicol]
- MIC (E. coli (ATCC 25922)): 4 µg/mL (≈ 12.4 µM)

Compound: Cc1cc(NS(=O)(=O)c2ccc(N)cc2)no1 [SMZ, Sulfamethoxazole, reference compound]
- E 0 (G. parasuis H78 [2]; healthy group): −4.4 Log10CFU/mL
- Emax (G. parasuis H78 [2]; healthy group): 2.3 Log10CFU/mL
- Emax − E0 (G. parasuis H78 [2]; healthy group): 6.7 Log10CFU/mL
- N (Hill coefficient) (G. parasuis H78 [2]; healthy group): 1.56
- E 0 (G. parasuis H78 [2]; infected group): −4.55 Log10CFU/mL
- Emax (G. parasuis H78 [2]; infected group): 2.36 Log10CFU/mL
- N (Hill coefficient) (G. parasuis H78 [2]; infected group): 1.52
- adverse reactions after intramuscular injection [3]: No serious adverse reactions

Compound: COc1cc(Cc2cnc(N)nc2N)cc(OC)c1N(C)C [ADP, Aditoprim]
- apparent distribution volume [1]: > 1.4 L/kg
- elimination half-life [1]: > 2.25 h
- concentration in PELF after 36 h ([4]; LOD 0.05 µg/mL, HPLC): below LOD
- concentration in plasma after 24 h ([4]; LOD 0.05 µg/mL, HPLC): below LOD
- T 1/2λ ([4]; PELF, healthy group, ADP/SMZ injection 5/25 mg/kg b.w. i.m.): 6.05 ± 0.20 h
- T 1/2λ ([4]; PELF, healthy pigs, single drug i.m.: ADP 5 mg/kg b.w., SMZ 25 mg/kg b.w.): 6.42 ± 0.43 h
- AUC(0-t) [4, 8]: 49100 ± 520 ng·h/mL
- AUC(0-t) [4, 9]: 44800 ± 540 ng·h/mL
- Cmax [4, 8]: 6780 ± 110 ng/mL
- Tmax [4, 8]: 1.95 ± 0.06 h
- MRT last [4, 8]: 6.88 ± 0.11 h
- Cmax [4, 9]: 6880 ± 140 ng/mL
- Tmax [4, 9]: 2 h
- MRT last [4, 9]: 6.43 ± 0.09 h
- AUC(0-t) [4, 10]: 7710 ± 260 ng·h/mL
- AUC(0-t) [4, 11]: 7590 ± 240 ng·h/mL
- Cmax [4, 10]: 870 ± 90 ng/mL
- Tmax [4, 10]: 2 h
- MRT last [4, 10]: 7.76 ± 0.26 h
- Cmax [4, 11]: 920 ± 80 ng/mL
- Tmax [4, 11]: 1 h
- MRT last [4, 11]: 7.63 ± 0.27 h
- T 1/2λ ([4]; plasma, healthy group, ADP/SMZ injection 5/25 mg/kg b.w. i.m.): 7.97 ± 0.81 h
- T 1/2λ ([4]; plasma, healthy pigs, single drug i.m.: ADP 5 mg/kg b.w., SMZ 25 mg/kg b.w.): 8.8 ± 0.53 h
- PAE (G. parasuis H78 [5]; 1 × MIC, exposure 1 h): 0.02 h
- PAE (G. parasuis H78 [5]; 1 × MIC, exposure 2 h): 0.40 h
- PAE (G. parasuis H78 [5]; 2 × MIC, exposure 1 h): 0.11 h
- PAE (G. parasuis H78 [5]; 2 × MIC, exposure 2 h): 0.43 h
- PAE (G. parasuis H78 [5]; 4 × MIC, exposure 1 h): 0.20 h
- PAE (G. parasuis H78 [5]; 4 × MIC, exposure 2 h): 0.48 h
- MPC (G. parasuis H78 [6]): 20 µg/mL
- (AUC24h/MIC)ex (E = 0) (G. parasuis H78 [2]; healthy group): 32.25 h
- (AUC24h/MIC)ex (E = −3) (G. parasuis H78 [2]; healthy group): 113.28 h
- (AUC24h/MIC)ex (E = −4) (G. parasuis H78 [2]; healthy group): 221.41 h
- E 0 (G. parasuis H78 [2]; healthy group): −4.78 Log10CFU/mL
- EC 50 (AUC0−24h/MIC giving 50% of Emax) (G. parasuis H78 [2]; healthy group): 56.4 h
- Emax (G. parasuis H78 [2]; healthy group): 2.07 Log10CFU/mL
- Emax − E0 (G. parasuis H78 [2]; healthy group): 6.85 Log10CFU/mL
- N (Hill coefficient) (G. parasuis H78 [2]; healthy group): 1.5
- (AUC24h/MIC)ex (E = 0) (G. parasuis H78 [2]; infected group): 27.19 h
- (AUC24h/MIC)ex (E = −3) (G. parasuis H78 [2]; infected group): 102.29 h
- (AUC24h/MIC)ex (E = −4) (G. parasuis H78 [2]; infected group): 204.17 h
- E 0 (G. parasuis H78 [2]; infected group): −4.8 Log10CFU/mL
- EC 50 (AUC0−24h/MIC giving 50% of Emax) (G. parasuis H78 [2]; infected group): 48.06 h
- Emax (G. parasuis H78 [2]; infected group): 2.15 Log10CFU/mL
- Emax − E0 (G. parasuis H78 [2]; infected group): 6.95 Log10CFU/mL
- N (Hill coefficient) (G. parasuis H78 [2]; infected group): 1.41
- T 1/2λ ([7]; PELF): 6.48 ± 0.62 h
- Tmax ([7]; PELF): 1.96 ± 0.05 h
- Tmax ([7]; plasma): 2 h
- T 1/2λ ([7]; plasma): 8.45 ± 0.61 h
- adverse reactions after intramuscular injection [3]: No serious adverse reactions
